In PubChem BioAssay (NCI):
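Grown in 96-well plates, cells were treated for 48 hours with each compound at five concentrations. Insufficient inhibition: endpoint recorded as highest concentration tested. GI50 = concentration required for 50% inhibition of growth. Definition used: TGI = concentration required for complete inhibition of growth.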

Assays:
Assay in all cases: inhibition of tumour cell growth, NCI panel, 48 h
[1] = test system: HS 578T breast
[2] = test system: BT-549 breast
[3] = test system: MDA-N
[4] = test system: PC-3 prostate
[5] = test system: CCRF-CEM leukemia
[6] = test system: MDA-MB-231 breast
[7] = test system: SR leukemia
[8] = test system: XF 498 CNS
[9] = test system: M19-MEL melanoma
[10] = test system: DMS 273 small cell lung
[11] = test system: DLD-1 colon
[12] = test system: KM20L2 colon
[13] = test system: SNB-78 CNS
[14] = test system: HOP-18 NSCLC
[15] = test system: DMS 114 small cell lung
[16] = test system: LXFL 529 NSCLC

SMILES: O=C(O)Cc1[nH]cnc1C(=O)O
- TGI [1]: > 100 µM
- TGI [2]: > 100 µM
- TGI [3]: > 100 µM
- TGI [4]: > 100 µM
- TGI [5]: > 100 µM
- TGI [6]: > 100 µM

SMILES: COc1ccc(/C=C/[N+](=O)[O-])cc1
- TGI [1]: 36.6 µM
- TGI [7]: 5.48 µM
- TGI [6]: 55.3 µM

SMILES: CSc1sc(=S)sc1SC
- TGI [8]: > 100 µM
- TGI [9]: > 100 µM
- TGI [10]: > 100 µM
- TGI [11]: > 100 µM
- TGI [12]: > 100 µM
- TGI [13]: > 100 µM
- TGI [14]: > 100 µM
- TGI [15]: > 100 µM
- TGI [5]: > 100 µM

SMILES: COc1ccc(/C(Cl)=C(\C=O)c2ccc(Cl)c(Cl)c2)cc1OC
- TGI [8]: 7.95 µM
- TGI [9]: 23 µM
- TGI [10]: 21.7 µM
- TGI [11]: 20.3 µM
- TGI [12]: 18.8 µM
- TGI [13]: 31.2 µM
- TGI [16]: 13.7 µM
- TGI [15]: 33.9 µM
- TGI [5]: 8.72 µM

SMILES: COc1cc2c3c(c4cc(OC)c(OC)cc4c2cc1OC)[C@H](O)[C@@H]1CCCN1C3
- TGI [2]: 9.63 µM
- TGI [7]: 2.67 µM
- TGI [4]: 1.98 µM
- TGI [5]: > 100 µM
- TGI [6]: 0.562 µM

SMILES: C[C@H](CCC1=NCCN1)[C@H]1CC[C@H]2[C@@H]3CC[C@@H]4C[C@H](O)CC[C@]4(C)[C@H]3CC[C@]12C
- TGI [1]: 48.2 µM
- TGI [2]: 33.4 µM
- TGI [3]: 29.5 µM
- TGI [7]: > 20 µM
- TGI [4]: 28.4 µM
- TGI [5]: 14.2 µM
- TGI [6]: > 41 µM

SMILES: S=C1NN=C2C(=C3CCCC4C5CCCCC5N2C34)N1 (configuration not stated)
- TGI [1]: > 100 µM
- TGI [2]: > 100 µM
- TGI [7]: > 100 µM
- TGI [5]: > 100 µM

SMILES: COc1cc2c3c(n(C4CCNCC4)c(=O)c2cc1OC)-c1cc2c(cc1C3=O)OCO2
- GI50 [5]: 0.287 µM
- TGI [5]: 2.25 µM

SMILES: CCCCCCCCCCCCCCCCOCCCOP(=O)(O)C1CCCN(O)C1=O (configuration not stated)
- GI50 [1]: 14.1 µM
- TGI [1]: 66.7 µM
- GI50 [4]: 0.468 µM
- TGI [4]: 13.6 µM
- GI50 [5]: 0.553 µM
- TGI [5]: 30 µM
- GI50 [6]: 2.3 µM
- TGI [6]: 16.8 µM

SMILES: NC(=O)c1cc(C2OC(CO)C(O)C2O)nn1-c1ccc([N+](=O)[O-])cc1 (configuration not stated)
- TGI [8]: > 100 µM
- TGI [10]: > 100 µM
- TGI [11]: > 100 µM
- TGI [12]: > 100 µM
- TGI [13]: > 100 µM
- TGI [16]: > 100 µM
- TGI [14]: > 100 µM
- TGI [15]: > 100 µM
- TGI [5]: > 100 µM
